This is an account of results in patent US20140004209A1, “AUTOPHAGY INDUCER AND INHIBITOR COMBINATION THERAPY FOR THE TREATMENT OF NEOPLASMS” (GENENTECH, INC., priority 2010, published 2014).

Each structure is given as a SMILES string. Entries after “also recorded” stand apart in the source; their conditions may differ. Like-named read-outs stand apart in the source and are kept apart here. Bounds are passed on as bounds.

The test system of experiment [1] is 537MEL melanoma cell line. The experiment in a line: Autophagy (Acridine Orange) and apoptosis (AnnV/PI) induction with CQ. Format: cell-based. From the text: (§1) FIGS. 32A-B and 34A-B depict data showing correlation between Autophagy induction and apoptosis induction when each compound is combined with CQ at 24 hrs after the given compound treatment measured by Acridine Orange staining in 537MEL melanoma cell line and SKBR3Breast cancer cell line, respectively. Control was DMSO.
(§2) FIGS. 33A-G and 35A-G show dose response curve of apoptosis induction in 537MEL melanoma and SKBR3Breast cancer cells, respectively, treated with the indicated compound alone or with 10 μM CQ, measured by Annezin V (AnnV) and Propidium iodide (PI) staining.

The subject of experiment [2] is SKBR3Breast cancer cell line. Described as above. Format: cell-based.
Excerpt: as §1, §2

The test system of a further experiment is multiple cell lines. In words: ED50 of CQ, AKTi and combination by CellTiter-Glo in multiple cell lines. It counts as cell-based. The following applies: day 4, 10% serum. The source says: (§3) FIG. 26B depicts the CI (combination index) by using bar graphs for data obtained by CellTiter-Glo assay at day 4 of treatment with 10% serum.
(ATP-based viability assays read luminescence as a measure of living cells.)

The test system of experiment [3] is U87MG (PTEN-, PI3K mut (1391M)) cell line. In words: CellTiter-Glo growth inhibition, III-4 and CQ combination. It counts as cell-based, human. The following applies: 1:1.5 ratio. How it is done:
as §3
FIGS. 30A-B depicts data for the U87MG (PTEN-, PI3K mut (1391M)) cell line.

Experiment [4] is described as follows: Cell death in combination with CQ (FIG. 17). Format: cell-based.
The test system of experiment [5] is PC3 (PTEN-, p53- and Al) cell line. In words: CellTiter-Glo growth inhibition, III-4 and CQ combination. It counts as cell-based, human. The following applies: 1:25 ratio.
Excerpt: as §3
FIGS. 27A-B depicts data for the PC3 (PTEN-, p53- and Al) cell line.

The test system of experiment [6] is MDA-MB-231 (Kras, Braf, p53 mut, Triple- and Basal) cell line. Described as above. It counts as cell-based.
Excerpt: as §3

Experiment [7] deals with PC3 cells. In words: Microarray analysis of autophagy gene expression in PC3 cells. The following applies: 1 or 5 μM for 6 or 24 hours, normalized to DMSO. It counts as cell-based, human. How it is done: PC3 cells were induced to express shRNA to indicated Akt isoforms for 72 hours by Doxycycline, RNA was extracted from both Dox treated (Dox+) or untreated control (Dox−) cells. Microarray analysis was carried out using Affymetrix chips. Ratios of the expression levels of each autophagy gene from Dox+ and Dox− samples are shown. Data are mean values from 3 independent experiments.
RNA was extracted from the cells. Microarray analysis was carried out using Affymetrix chips. Expression levels of each autophagy gene are normalized to the DMSO controls. Data are mean values from 3 independent experiments.

Experiment [8] deals with MDA-361.1 (PI2-K mut (E545K), Her2+, HR+ and Luminal) cell line. The experiment in a line: CellTiter-Glo growth inhibition, III-4 and CQ combination. Format: cell-based. The conditions noted are these: 1:12.5 ratio.
Excerpt: as §3
FIGS. 28A-B depicts data for the MDA-361.1 (PI2-K mut (E545K), Her2+, HR+ and Luminal) cell line.

In experiment [9] the test system is PC3 cells. The experiment in a line: Autophagy markers in PC3 cells (EM AVs, GFP-LC3, LC3-II/LC3-I, MDC, AO). Format: cell-based, human. How it is done:
Western blot analysis, immunofluorescence, 1HC and TUNEL assay: For Western blot analysis, total protein lysates were subjected to SDS-PAGE and transferred to nitrocellulose. […] Detection and quantification were performed using an Odyssey infrared scanner (LICOR) using the manufacturer's software. For immunofluorescence staining, cells were fixed in 3% paraformaldehyde and permeabilized with 0.01% digitonin in PBS, followed by a rabbit polyclonal anti-LC3 (Abgent) primary antibody detected with a cy3-conjugated anti-rabbit secondary antibody (Jackson Immunoresearch). For IHC, formalin-fixed, paraffin-embedded specimens were collected. 5-μm-thick paraffin-embedded sections were stained using an anti-Ki-67 (MIB-1, DakoCytomation) antibody with the Dako ARK kit (Dako Corporation). Tissues were counterstained with haematoxylin, dehydrated, and mounted. In all cases, antigen retrieval was performed with the Dako Target Retrieval Kit as per manufacturer's instructions. For TUNEL assay, formalin-fixed, paraffin-embedded sections were stained using an in situ cell death detection kit (POD; Roche Diagnostic) according to the manufacturer's instructions.
Ultrathin sections were stained with uranyl acetate and lead citrate. Numbers of AV were counted on systematically sampled cytoplasmic areas of 4.5 μm^2 (n≧64 per condition). The percent AV area was measured by means of a square mesh grid laid over ≧5 sets of systematically sampled micrographs with each set covering a cytoplasmic area ≧80 μm^2. The average percent of apoptotic nuclei in tumor tissues was calculated from the number of apoptotic nuclei in 3 to 4 sets of 100 systematically counted tumor cell nuclei.
Multispectral imaging flow cytometry: Cells treated with various agents were stained with Acridine Orange and analyzed by the ImageStream system (Amnis Corporation, Seattle, Wash.) using the IDEAS image analysis program. The DNA AOGreen image and the vacuolar AO Red image were first compensated into separate channels, and then the percentage of apoptotic/anucleate cells (based on AO nuclear morphology and intensity) and vacuolated cells (AO Red+) were quantified. […] AORed Intensity is plotted on the second histogram with an arbitrary gate (R5) drawn to include events with the brightest AO Red intensity.

For experiment [10], the system named is PC3 cells. In words: PC3 cell viability and cell death (PI exclusion, annexin V, caspase-3/7). Format: cell-based, human. The conditions noted are these: 0.5 μM III-5, 10 μM CQ, 0.5% FBS. How it is done: Cell viability and cell cycle analysis. Cell number and viability was measured using trypan blue exclusion assay using a Vi-Cell Analyzer (Beckman Coulter), or labeled with 1 μg/ml PI in PBS/1% BSA followed by cytofluorometric analysis with a fluorescence-activated cell sorter (FACS) (Becton Dickinson). FITC-conjugated Annexin V was used for the assessment of phosphatidylserine exposure by FACS analysis. Caspase activation was analyzed using a Caspase-Glo 3/7 Assay kit (Promega). For cell cycle analysis, cells were fixed with drop-wise addition of chilled 70% ethanol, washed with PBS and resuspended in staining solution containing 50 μg/ml PI and 60 units of RNAse A. DNA content was analyzed by flow cytometry using the FlowJo and ModFit software (Becton Dickinson).

For another experiment, the system named is class I PI3Ks and mTOR. The following applies: cited from earlier work.
For the next experiment, the target named is class III PI3K (Homo sapiens, UniProt Q8NEB9). The conditions noted are these: cited from earlier work.
The mark [11] stands for this setting: 24 hrs, Acridine Orange staining.

Sequence of class III PI3K (Q8NEB9 whole entry): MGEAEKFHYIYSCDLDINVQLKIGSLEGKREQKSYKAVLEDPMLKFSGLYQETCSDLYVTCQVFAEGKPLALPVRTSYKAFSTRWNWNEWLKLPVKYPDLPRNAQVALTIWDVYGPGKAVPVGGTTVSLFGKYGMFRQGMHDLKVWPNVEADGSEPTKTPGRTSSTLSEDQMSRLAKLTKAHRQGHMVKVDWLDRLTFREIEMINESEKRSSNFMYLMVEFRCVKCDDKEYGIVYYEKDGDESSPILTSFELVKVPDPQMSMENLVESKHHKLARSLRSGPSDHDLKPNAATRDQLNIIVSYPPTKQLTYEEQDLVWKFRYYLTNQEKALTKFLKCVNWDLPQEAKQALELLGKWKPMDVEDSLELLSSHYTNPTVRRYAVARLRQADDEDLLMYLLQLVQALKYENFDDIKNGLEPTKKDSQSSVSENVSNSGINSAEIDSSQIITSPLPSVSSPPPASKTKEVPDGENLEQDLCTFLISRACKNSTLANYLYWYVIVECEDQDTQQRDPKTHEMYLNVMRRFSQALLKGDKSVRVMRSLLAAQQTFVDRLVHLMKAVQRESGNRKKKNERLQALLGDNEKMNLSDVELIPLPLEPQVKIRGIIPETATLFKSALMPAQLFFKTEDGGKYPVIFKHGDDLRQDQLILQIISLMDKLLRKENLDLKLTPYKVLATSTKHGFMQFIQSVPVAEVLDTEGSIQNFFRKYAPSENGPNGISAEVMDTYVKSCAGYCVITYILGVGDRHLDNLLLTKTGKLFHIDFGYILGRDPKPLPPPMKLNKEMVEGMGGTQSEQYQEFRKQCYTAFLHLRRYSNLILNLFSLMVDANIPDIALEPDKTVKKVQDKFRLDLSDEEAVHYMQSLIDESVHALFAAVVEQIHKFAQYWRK

With `O=C(NOC[C@H](O)CO)c1ccc(F)c(F)c1Nc1ccc(I)cc1F` [VII, (R)—N-(2,3-dihydroxypropoxy)-3,4-difluoro-2-(2-fluoro-4-iodophenylamino)benzamide], the “apoptosis induction when combined with CQ” value is on record as “no synergistic apoptosis induction is shown when combined with CQ; also recorded: CQ does not induce apoptosis in cancer cells” in [1] (10 μM CQ, AnnV and PI staining); “no synergistic apoptosis induction is shown when combined with CQ; also recorded: CQ does not induce apoptosis in cancer cells” in experiment [2] (10 μM CQ, AnnV and PI staining). The autophagy induction entry in experiment [1] (setting [11]) and in experiment [2] (setting [11]) was “does not induce an increase in autophagy” in each case.
On to `CC(C)NC[C@@H](C(=O)N1CCN(c2ncnc3c2[C@H](C)C[C@H]3O)CC1)c1ccc(Cl)cc1` [III-4, (S)-2-(4-chlorophenyl)-1-(4-((5R,7R)-7-hydroxy-5-methyl-6,7-dihydro-5H-cyclopenta[d]pyrimidin-4-yl)piperazin-1-yl)-3-(isopropylamino)propan-1-one], for which the “ED50 of combination with CQ vs single agents” value with multiple cell lines was “significantly lowers the ED50 for both the AKTi and CQ”. The “growth inhibition, III-4 and CQ combination vs single agents” value in experiment [3], in experiment [5], in [6] and in experiment [8] was “the combination inhibits growth in the cell line at lower concentrations of III-4 than either III-4 alone or CQ alone” each time. Besides, the “interaction with CQ on cell death” value in experiment [4] was “synergize with CQ to accelerate cell death”. Besides, the autophagy gene expression result in the experiment on PC3 cells [7] was “induce autophagy gene expression”.
Consider `Oc1cccc(-c2nc(N3CCOCC3)c3oc4ncccc4c3n2)c1` [III-5], for which the results for the “induction of AV accumulation / autophagy, agent alone” value with PC3 cells [9] and in the experiment with PC3 cells [9] (listed as PI-103) were “potent at inducing the accumulation of AVs” and “induced overt autophagy”, respectively. Moreover, the “MDC+ vacuoles, III-5 in combination with CQ” value in the experiment with PC3 cells [9] (0.5 μM III-5, 10 μM CQ, 48 h) was “CQ dramatically increased the size and number of MDC+ vacuoles”. Moreover, the “cell death, III-5 (PI-103) in combination with CQ” value in the experiment with PC3 cells [10] is listed as “CQ accelerated cell death in combination with III-5; also recorded: combination with CQ accelerated the death of cells”; with PC3 cells [10] (listed as PI-103), “significantly accelerated death rate”. Also, in the experiment with class I PI3Ks and mTOR, the “inhibition of the class I PI3Ks and mTOR” value was “nanomolar concentrations”. Also, the “more potent on class I than class III PI3K” value on class III PI3K was 1,000 ×. In addition, the “less potent on the class III PI3K” value at class III PI3K (relative to class I PI3Ks and mTOR) is > 1,000 fold.
